The results in this text go back to ChEMBL document CHEMBL3507680, “University of Dundee, Gates Library screen for HepG2 cell viability”.

This data set in a line: Human HepG2 cell viability assay in 384 well format. Details: dose 125 nL, time 70.5 hour; cytotoxicity at 70.5 h: concentration not given beside the values. The data set is classed as toxicity, cell-based. The conditions noted are these: HepG2 cells, read-out: Inhibition.
With `O=C1OCCC1N1CCN(c2ccc(O)cc2)CC1` (centres undefined), the cytotoxicity at 70.5 h was 10.3%.

`CCc1nc(CN2CCN(C(=O)c3cc(C)nn3C)CC2)cs1`: the cytotoxicity at 70.5 h is -6.68%.

Take `O=C(CNC(=O)N1CCN(c2cccc(Cl)c2)CC1)Nc1ccccn1`: the cytotoxicity at 70.5 h is -9.74%.

For the compound `O=C1N(Cc2cccc(F)c2F)CCCC1(O)CNCc1ccccn1` (centres undefined), the cytotoxicity at 70.5 h was -2.1%.

Consider `CC(C)c1ccc(OCC(=O)NS(=O)(=O)c2cccnc2)cc1`, for which the cytotoxicity at 70.5 h is -0.457%.

As for `COc1c(C(=O)NCC(C)C)nnn1Cc1ccccc1`, the cytotoxicity at 70.5 h was -4.1%.

Turning to `O=C(Nc1cc(C(F)(F)F)ccc1Cl)c1ccc(N2CCCC2)nn1`, the cytotoxicity at 70.5 h was 19.7%.

For the compound `COc1cccc(C2CN(CCc3ccncc3)CCO2)c1` (centres undefined), the cytotoxicity at 70.5 h is -6.16%.

Turning to `Cc1cccc(CN2C[C@@H]3CN(Cc4ccoc4)CCO[C@@H]3C2)n1`, the cytotoxicity at 70.5 h is -1.63%.

For `CCS(=O)(=O)NC[C@]12COC[C@H]1CN(CCc1ccccc1)C2`, the cytotoxicity at 70.5 h is -5.39%.

Regarding `Cc1noc(C)c1NC(=O)N1CCC(NC(=O)OC(C)(C)C)CC1`, the cytotoxicity at 70.5 h is -5.75%.

As to `CN(C)CCN(C)C(=O)c1cnc2c(c1)nc(-c1ccccc1Cl)n2C`, the cytotoxicity at 70.5 h is -5.91%.

For the compound `Cc1cccc(Sc2nccn(C)c2=O)c1`, the cytotoxicity at 70.5 h is -13.8%.

As for `O=C(O)Cn1ccc(=O)c2ccc(Cl)cc21`, the cytotoxicity at 70.5 h is -7.34%.

`Cc1nc(C)n(CC2CCCN(c3ncnc4sccc34)C2)n1` (centres undefined): the cytotoxicity at 70.5 h came to 29.9%.

As to `c1cnc(N2C[C@@H]3CC[C@H](C2)N(Cc2ccsc2)C3)nc1`, the cytotoxicity at 70.5 h was -9.26%.

Regarding `O=C(Nc1cccnc1-n1cccn1)N1CCCC(N2CCCC2)C1` (centres undefined), the cytotoxicity at 70.5 h was -4.62%.

As for `CC(C)N1CCC(Cc2cc(-c3cc(F)ccc3C(=O)O)ncn2)C1` (centres undefined), the cytotoxicity at 70.5 h is -3%.

On to `CNc1ncc(CN(C)c2nc(C3CCCC3)nc3c2cnn3C)cn1`, for which the cytotoxicity at 70.5 h worked out at 6.56%.

Turning to `CCc1nc(C2CCCN2C(=O)c2csc(COC)n2)no1` (centres undefined), the cytotoxicity at 70.5 h was -0.0198%.

For `Cc1cncc(Oc2ccc(CO)cc2)n1`, the cytotoxicity at 70.5 h was -5.95%.

`CC(Cn1cccn1)NCC(=O)NCCc1cccs1` (centres undefined): the cytotoxicity at 70.5 h is -4.39%.

On to `CC(Nc1ccc(C#N)cc1F)c1cccc(S(N)(=O)=O)c1` (centres undefined), for which the cytotoxicity at 70.5 h came out at 16.2%.

On to `CC1(C)CN=C(N2CCN(CC3CCCO3)CC2)S1` (centres undefined), for which the cytotoxicity at 70.5 h was -7.36%.

As to `CCc1nc(N)sc1C(=O)N1CCCC(CCc2ccccc2C)C1` (centres undefined), the cytotoxicity at 70.5 h is -6.29%.

In the case of `Cc1ccc(-c2cc(N)c(=O)n(C(C)C(N)=O)n2)o1` (centres undefined), the cytotoxicity at 70.5 h is -5.11%.

`CN(Cc1c(F)cccc1Cl)C(=O)CN(C)C1CCc2ccccc21` (centres undefined): the cytotoxicity at 70.5 h was -5.53%.

On to `CNS(=O)(=O)c1cccc(CNc2ncccn2)c1`, for which the cytotoxicity at 70.5 h is -1.46%.

For `CCc1ccc2occ(CC(=O)N3CCC4(CCCN(C)C4=O)C3)c2c1` (centres undefined), the cytotoxicity at 70.5 h was -9.34%.

Take `CC(CCc1ccccc1)NC(=O)CNCCCN(C)C` (centres undefined): the cytotoxicity at 70.5 h was -3.07%.

Regarding `COc1cccc(CN2CC[C@H]3[C@@H](C2)[C@H](c2ccsc2)CN3C(C)=O)c1`, the cytotoxicity at 70.5 h came out at 28.6%.

As to `Cc1csc(CNc2nc3c(s2)c(C)nn3C)n1`, the cytotoxicity at 70.5 h was -4.74%.

In the case of `COc1ccc(NC(=O)c2ccc[nH]2)c(N2CCN(C(C)=O)CC2)n1`, the cytotoxicity at 70.5 h is -0.755%.

With `Cc1cc(C(=O)NC2CCc3c(ccc(=O)n3CCN(C)C)C2)no1` (centres undefined), the cytotoxicity at 70.5 h is -3.71%.

Take `CC(Cc1ccco1)NC(=O)Nc1cnn(CC(N)=O)c1` (centres undefined): the cytotoxicity at 70.5 h is -1.8%.

As to `O=C(NC1CCN(Cc2cccc3c2OCCO3)CC1)c1cccs1`, the cytotoxicity at 70.5 h came out at 0.406%.

As for `Cc1ccc(C(=O)NCCNc2ncccc2C#N)c(=O)[nH]1`, the cytotoxicity at 70.5 h was 20.6%.

For `CSCC(=O)NS(=O)(=O)c1ccc(C#N)c(C(F)(F)F)c1`, the cytotoxicity at 70.5 h is -8.4%.

With `Oc1nc(N2CCOCC2)nc2nccc(-c3ccccn3)c12`, the cytotoxicity at 70.5 h was -4.58%.

Regarding `O=C(Nc1cccnc1)[C@H]1CN(Cc2ccco2)C[C@H]2OCC[C@@H]12`, the cytotoxicity at 70.5 h was -7.09%.

Take `Cc1nc(C(C)(C)C)sc1C(=O)NCCNc1ncccn1`: the cytotoxicity at 70.5 h was -8.27%.

As for `COc1cccc2[nH]cc(CCNC(=O)N3CCC[C@H]3CO)c12`, the cytotoxicity at 70.5 h was -1.09%.

On to `COc1cccc2c1OCC(C(=O)N1CCN(CCS(C)(=O)=O)CC1)C2` (centres undefined), for which the cytotoxicity at 70.5 h is -4.99%.

On to `Cc1noc(C)c1CN1C[C@@H]2COC[C@@H](C(=O)N3CCCO3)[C@@H]2C1`, for which the cytotoxicity at 70.5 h is 51.2%.

`Cc1cccc(C(=O)NCC(O)c2ccc(F)cc2F)c1` (centres undefined): the cytotoxicity at 70.5 h was -0.893%.

Consider `CCc1nc(C(=O)N2CCCC2)nn1-c1ccccc1Cl`, for which the cytotoxicity at 70.5 h came out at 10.2%.

Turning to `CC(C)CN1C(=O)C2(CCCC2)NC1c1c[nH]nc1-c1cccnc1` (centres undefined), the cytotoxicity at 70.5 h is -3.57%.

As to `Oc1cc(CN2CCC(O)(Cn3ccnc3)CC2)nc2c(Cl)cccc12`, the cytotoxicity at 70.5 h was -9.08%.

For the compound `CC(C)(C)c1nccc(N2CCCCC2CNS(C)(=O)=O)n1` (centres undefined), the cytotoxicity at 70.5 h is -4.1%.

As for `CC(C)=CCCC(C)CN1CCC(n2cc(CO)nn2)CC1` (centres undefined), the cytotoxicity at 70.5 h is -4.45%.

Consider `O=C(NCCN1CCCCC1)c1ccoc1`, for which the cytotoxicity at 70.5 h is 17.6%.

For `CC(C)N1C[C@H](O)C[C@H]1c1nc(-c2ccc(OC(F)(F)F)cc2)no1`, the cytotoxicity at 70.5 h was -3.17%.

As to `CCOc1ccc(NC(=O)N2CCC(n3cncn3)CC2)cc1Cl`, the cytotoxicity at 70.5 h came to 19.7%.

`Cn1cc(CN2CCN3C[C@H](Oc4cccnc4)C[C@H]3C2)cn1`: the cytotoxicity at 70.5 h is -1.85%.

With `COc1cc(NC(=O)c2cc(C)sc2C)c(C(=O)N(C)C)cc1OC`, the cytotoxicity at 70.5 h was -19.4%.

As to `CCCc1nnc(N2CCCC(c3nnc(Cn4ccnc4)n3C)C2)s1` (centres undefined), the cytotoxicity at 70.5 h was -2.6%.

For the compound `CCc1nnc(CN(C)Cc2cccc(C(=O)Nc3nccs3)c2)o1`, the cytotoxicity at 70.5 h is -1.25%.

In the case of `CC(C)Cc1noc(CN2CCC(NC(=O)c3cccs3)CC2)n1`, the cytotoxicity at 70.5 h is -8.58%.

As to `COc1cc(N[C@@H](Cc2ccccc2)C(N)=O)ncn1`, the cytotoxicity at 70.5 h was -5.19%.

For `CCC1c2ccsc2CCN1C(=O)NCc1cc[nH]n1` (centres undefined), the cytotoxicity at 70.5 h was -1.24%.

In the case of `CC(C)N(C)S(=O)(=O)N1CCN(Cc2ccco2)CC1`, the cytotoxicity at 70.5 h is -5.12%.

Regarding `O=C(O)[C@@H]1CN(C(=O)CCC(F)(F)F)C[C@H]1c1ccncc1`, the cytotoxicity at 70.5 h is -1.6%.

Turning to `Cc1nc(C2CCCN2C(=O)CCCOc2ccccc2C)no1` (centres undefined), the cytotoxicity at 70.5 h is -8.51%.

As for `Cc1nnc2n1CCN(CCOc1ccccc1)C2`, the cytotoxicity at 70.5 h was -11.4%.

For `CCOc1ccccc1N1CCN(C(=O)c2cc[nH]n2)CC1`, the cytotoxicity at 70.5 h was determined as 0.935%.

Turning to `CC(C)N1CCCC2(CCN(c3nccc(C(F)(F)F)n3)C2)C1=O` (centres undefined), the cytotoxicity at 70.5 h was -3.02%.

As to `COc1ccc(F)cc1C(=O)N1CCn2c(nnc2C(F)(F)F)C1`, the cytotoxicity at 70.5 h was -5.57%.

For the compound `Cc1cc(C)n(-c2ccc(C(C)NS(=O)(=O)CCCS(C)(=O)=O)cc2)n1` (centres undefined), the cytotoxicity at 70.5 h worked out at 19.6%.

On to `CC1(NC(=O)Cc2csc(C(C)(C)C)n2)CCS(=O)(=O)C1` (centres undefined), for which the cytotoxicity at 70.5 h was 18.9%.

As to `O=C(Cn1ccc2c(Cl)cccc21)Nc1nc[nH]n1`, the cytotoxicity at 70.5 h was -11.2%.

With `COCC(=O)NC[C@H]1C[C@@H]2CCN1C[C@@H]2c1cc(-c2cccs2)nn1C`, the cytotoxicity at 70.5 h is -7.87%.

On to `Cc1ccc(C(=O)NCCNCC2CNc3ccnn3C2)cc1` (centres undefined), for which the cytotoxicity at 70.5 h is -0.325%.

`CCN(C(=O)NCc1ncc(C)c(OC)c1C)C(C)c1cccnc1` (centres undefined): the cytotoxicity at 70.5 h was -9.02%.

Consider `COc1cc(C(=O)N2CCC(O)(CN3CCOCC3)C(C)(C)C2)ccn1` (centres undefined), for which the cytotoxicity at 70.5 h was -0.646%.

As for `Cc1csc(C(=O)N2CC[C@H](Oc3cccnc3C)[C@@H](O)CC2)c1`, the cytotoxicity at 70.5 h turned out to be 14%.

In the case of `COc1ccc(OCc2nc(C(=O)N3CCCNC(=O)C3)co2)cc1`, the cytotoxicity at 70.5 h is -2.16%.

For the compound `COc1c(C)cc(S(=O)(=O)NCC2CNCCOC2)cc1C` (centres undefined), the cytotoxicity at 70.5 h stood at 3.62%.

For `O=C(c1cccnc1)N1CCC2(CCN(C(=O)N3CCCC3)CC2)C1`, the cytotoxicity at 70.5 h was -0.226%.

On to `Cc1ccccc1-n1nccc1NC(=O)CCOC(C)C`, for which the cytotoxicity at 70.5 h came out at 11.4%.

On to `CCC(CC)NC(=O)c1cncc(Br)c1`, for which the cytotoxicity at 70.5 h worked out at 1.03%.

Turning to `CCN(Cc1ccoc1)c1ncc(S(N)(=O)=O)s1`, the cytotoxicity at 70.5 h was -7.46%.

In the case of `Cc1noc(C)c1CN(C)C(=O)CCn1c(=O)n(C)c2ccccc21`, the cytotoxicity at 70.5 h is -12.2%.

For the compound `C[C@H](NC(=O)c1cccc(CCC(C)(C)O)c1)C(N)=O`, the cytotoxicity at 70.5 h is -0.496%.

For the compound `CC(C)Nc1nc2c(s1)C(=O)CN(C(=O)NCCc1ccccc1)C2`, the cytotoxicity at 70.5 h is -4.98%.

As for `Cc1ncccc1Oc1cncc(C2CCCN2Cc2cncn2C)n1` (centres undefined), the cytotoxicity at 70.5 h was -2.83%.

`CCN1CCc2c(c(COC)nn2C)C1`: the cytotoxicity at 70.5 h was -10.5%.

Take `COCc1ncc(CN2CC[C@@H](NC(=O)c3cccnc3)[C@H](O)C2)cn1`: the cytotoxicity at 70.5 h stood at 20.2%.

Turning to `CC(=O)N1CCN(CC=C(C)C)CC1`, the cytotoxicity at 70.5 h is -6.01%.

As for `Fc1cccc(CN2C[C@@H]3COC[C@]3(COCc3ccncc3)C2)c1`, the cytotoxicity at 70.5 h is -1.32%.

Take `CC(C)(O)c1cn(C2CCN(C(=O)CCc3ccncc3)CC2)nn1`: the cytotoxicity at 70.5 h was -4.73%.

For `Cc1cccc(CC2CCCN(C(=O)Cc3csc(C)n3)C2)n1` (centres undefined), the cytotoxicity at 70.5 h was -10.5%.

With `CCn1ncc2c1CCCC2NCc1cc(OC)cc(OC)c1` (centres undefined), the cytotoxicity at 70.5 h was -9.39%.

As for `N#Cc1csc(CN(CC(=O)N2CCCC2)CC2CCCO2)c1` (centres undefined), the cytotoxicity at 70.5 h stood at 0.764%.

As to `CC(C)NC(=O)N1CCC2(CCC(=O)N2CCN2CCCC2)CC1`, the cytotoxicity at 70.5 h was -9.28%.

Consider `CC1CN(C(=O)NCCn2ccnc2)CCO1` (centres undefined), for which the cytotoxicity at 70.5 h was -1.49%.

As for `O=C(c1ccc(F)cc1)N1CCC2(CCN(Cc3ccccn3)C2=O)C1` (centres undefined), the cytotoxicity at 70.5 h was -5.2%.

Regarding `CCC(=O)N1CCCC1(C)c1nc(C)no1` (centres undefined), the cytotoxicity at 70.5 h was -6.82%.

As for `O=C(c1ccc(F)c(Cl)c1)N1C[C@@H]2CC[C@H](C1)N(Cc1ccccc1)C2`, the cytotoxicity at 70.5 h was -5.41%.

Take `COc1ccc(C(=O)C2CCCN(Cc3ccon3)C2)c(OC)c1` (centres undefined): the cytotoxicity at 70.5 h is -10.4%.
